Ki data for one compound are collected here from BindingDB's records for doi:10.1021/jm000048n (Washington State University, 2000).

Broadly, the Ki is the dissociation constant of the complex between target and ligand, obtained from inhibition or displacement. Lower therefore signals a stronger hold on the target.

One series deals with Cytochrome P450 2C9 (Homo sapiens, UniProt P11712). The series can be described thus: (§1) Binding affinity was measured on Cytochrome P450 2C9.
For series [1], the target named is {'v': 'CYP2C9', 'o': 'p', 'q': 'Cytochrome P450 2C9 (single_protein)'} (Homo sapiens, UniProt P11712). The series is described as §1.
Sequence of {'v': 'CYP2C9', 'o': 'p', 'q': 'Cytochrome P450 2C9 (single_protein)'} (P11712 whole entry): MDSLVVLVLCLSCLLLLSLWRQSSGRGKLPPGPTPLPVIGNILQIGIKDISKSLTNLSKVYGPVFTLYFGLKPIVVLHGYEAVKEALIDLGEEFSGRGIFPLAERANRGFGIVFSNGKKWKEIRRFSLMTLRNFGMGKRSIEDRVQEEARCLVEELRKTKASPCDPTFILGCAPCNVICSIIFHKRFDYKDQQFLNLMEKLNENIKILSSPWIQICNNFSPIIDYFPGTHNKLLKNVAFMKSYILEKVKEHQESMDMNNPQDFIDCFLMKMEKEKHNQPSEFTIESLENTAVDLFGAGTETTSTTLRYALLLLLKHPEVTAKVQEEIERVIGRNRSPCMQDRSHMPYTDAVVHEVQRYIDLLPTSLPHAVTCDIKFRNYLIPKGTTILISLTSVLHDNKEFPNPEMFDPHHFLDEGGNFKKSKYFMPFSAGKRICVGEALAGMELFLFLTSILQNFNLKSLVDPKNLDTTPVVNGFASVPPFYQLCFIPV

Sequence of Cytochrome P450 2C9 (P11712 whole entry): as above

In the case of `CC[C@H](c1ccccc1)c1c(O)c2ccccc2oc1=O`, the inhibitory constant (Ki) (on Cytochrome P450 2C9; in series [1]) was 500 nM in each case.
